According to patent US11040016B2, “Composition for alleviating, preventing or treating female menopausal symptoms, containing, as active ingredient, pinitol, D-chiro-inositol or analog compounds thereof” (DY NATURAL CO., LTD, priority 2016, dated 2021):

Columns and labels:
17β-estradiol [1] = assay: 17β-estradiol level in the blood of middle-aged women after 8 weeks administration (ELISA); type: in vivo; details: middle-aged women, 600, 1,200, 2,400 mg a day for 8 weeks
Protocol: (§1) Forty middle-aged women aged 40 or more were divided into four groups each having ten women, and the four groups were designated as a control group taking a placebo and three test groups taking pinitol. Similarly, forty middle-aged women aged 40 or more were divided into four groups each having ten women, and the four groups were designated as a control group taking a placebo and three test groups taking D-chiro-inositol. Thereafter, the placebo, pinitol, or D-chiro-inositol was administered at various concentrations for 8 weeks in a double-blind fashion. The pinitol, D-chiro-inositol, or placebo was administered at 600 mg, 1,200 mg, and 2,400 mg a day. The blood was taken from the arm vein at the same time, 2:00 pm, before intake and after the last intake, and then transferred to heparinized tubes, followed by centrifugation at 2,500 rpm (4° C.) for 15 minutes, and therefore, the plasma was separated by transfer to new tubes. The separated plasma was used to measure sex hormone levels in the blood. The levels of hormones and proteins in the blood were measured according to the manufacturer's manual by using the ELISA kit (Enzo Life Sciences, U.S.A.) for measurement of 17β-estradiol or sex-hormone binding globulin (SHBG) in the blood. In order to analyze the effects of pinitol and D-chiro-inositol on sex hormones in middle-aged women, forty middle-aged 40 or more were divided into four groups each having ten women, and the four groups were designated as a control group taking a placebo and three test groups taking pinitol. Similarly, forty middle-aged women aged 40 or more were divided into four groups each having ten women, and the four groups were designated as a control group taking a placebo and three test groups taking D-chiro-inositol. Thereafter, the placebo, pinitol, or D-chiro-inositol was administered at various concentrations for 8 weeks in a double-blind fashion. The pinitol or D-chiro-inositol was administered at 600 mg, 1,200 mg, and 2,400 mg a day for 8 weeks. As a result of the test, there was no significant change in 17β-estradiol level in the blood in the women between pre- and pro-administration of the placebo. […] According to the test results, it could be confirmed that, similar to the results in the white rats, pinitol and D-chiro-inositol can alleviate female menopause symptoms by increasing the 17β-estradiol levels in the blood and decreasing the SHBG levels in the blood.

middle-aged women = assay: Menopause Rating Scale (MRS) survey in middle-aged women; type: in vivo; details: for alleviation rate of menopausal symptoms: MRS vs placebo; for MRS score post-taking compared with placebo taking group and pre-taking: middle-aged women, 600, 1,200, 2,400 mg once a day for 8 weeks
Protocol: Forty middle-aged women aged 40 or more were divided into four groups each having ten women, and the four groups were designated as a control group taking a placebo and three test groups taking pinitol. Similarly, forty middle-aged women aged 40 or more were divided into four groups each having ten women, and the four groups were designated as a control group taking a placebo and three test groups taking D-chiro-inositol. Thereafter, the placebo, pinitol, or D-chiro-inositol was administered at various concentrations for 8 weeks in a double-blind fashion. The pinitol, D-chiro-inositol, or placebo was administered at 600 mg, 1,200 mg, and 2,400 mg a day. The blood was taken from the arm vein at the same time, 2:00 pm, before intake and after the last intake, and then transferred to heparinized tubes, followed by centrifugation at 2,500 rpm (4° C.) for 15 minutes, and therefore, the plasma was separated by transfer to new tubes. The separated plasma was used to measure sex hormone levels in the blood. Since subjective symptoms account for a large proportion of menopausal symptoms, several measures are used to assess the degrees of menopausal clinical symptoms. For assessment of menopausal clinical symptoms, Kupperman's index has been used for a long time. However, questions of vaginal dryness, reduction of sexual desire, and the like, are missing in the Kupperman's index, and therefore, the Menopause Rating Scale (MRS) and the Menopause-Specific Quality of Life Questionnaire (MENQOL), which are questionnaires supplementing such questions, are being widely used in current clinical trials. The MRS has been globally recognized to have reliability and feasibility due to its advantages of having a small number of questions, a total of 11 questions, and being simple and convenient, and thus the MRS is being recited in many studies (Table 1). In the present invention, the severity of menopausal symptoms was measured and analyzed by allowing the above middle-aged women clinical subjects to fill out the MRS questionnaire. The alleviating effects on female menopause symptoms were assessed by allowing the middle-aged women clinical subjects to fill out the Menopause Rating Scale (MRS) questionnaire pre- and post-intake of the placebo, pinitol, or D-chiro-inositol. [table] In order to assess the alleviating effects of female menopause symptoms by pinitol and D-chiro-inositol, a Korean-version Menopause Rating Scale (MRS) survey was performed. Eighty middle-aged 40 or more were divided into four groups, a placebo group and pinitol administration groups, each having ten women, and similarly, were divided into four groups, a placebo group and D-chiro-inositol administration groups, each having ten women. Thereafter, the placebo and 600 mg, 1,200 mg, and 2,400 mg of pinitol or D-chiro-inositol were administered once a day for 8 weeks in a double-blind fashion. The women were allowed to fill out the Menopause Rating Scale (MRS) questionnaire before and after taking the placebo, pinitol, or D-chiro-inositol. The scores of the MRS questionnaire were calculated as a total score. The 0-4 points indicate a good menopausal state, which is a smooth menopause state. A total of 5-8 points indicate a slight menopausal state, requiring management. A total of 9-15 points indicate a severe menopausal state, requiring precise diagnosis and treatment by specialists because of menopausal diseases. Last, a total of 16 points or more indicates an extremely severe menopausal state, thereby urgently requiring therapy through minute management and long-term plans. […] The MRS measurement results could confirm that pinitol alleviated female menopause symptoms caused by female hormone reduction, such as reduction of sexual desire, insomnia, urogenital diseases and infections, joint and muscular diseases, depression, and hypersensitiveness.

[2] = test system: sex-hormone binding globulin (SHBG); assay: SHBG level in the blood of white rats after 8 weeks oral administration (ELISA); type: in vivo, Sprague-Dawley (SD) white rats; details: female SD rats
Protocol: Pinitol and D-chiro-inositol were purchased from Biosearch Life (Camino de Purchil, 66. 18004 Granada, Spain). Six-month-old female Sprague-Dawley (SD) white rats (Orient, Korea) were divided into a test group administered with pinitol or D-chiro-inositol and a control group administered with physiological saline while ten animals were used in the test for each of the groups. The rats were bred in a breeding room controlled under a temperature of 22±1° C., humidity of 55±1%, and 12-hour light/dark cycle. The rats were given free access to food and water, and for 7 days after entrance, the rats were acclimated for the breeding environment, and then were used for tests. Physiological saline and pinitol or D-chiro-inositol were orally administered at various doses (10 mg/kg, 20 mg/kg, or 40 mg/kg) at the same amount once a day for 8 weeks. After the last oral administration, the rats were fasted overnight and then anesthetized with ether, and the abdomen was cut open, and then blood was collected from the abdominal vein. The collected blood was transferred to a heparinized tube, followed by centrifugation at 2.500 rpm for 15 minutes for 4° C., thereby separating serum and plasma. The separated blood was stored at −80° C. until the next test. The levels of hormones and proteins in the blood were measured according to the manufacturer's manual by using the ELISA kit (Enzo Life Sciences, U.S.A.) for measurement of 17β-estradiol or sex-hormone binding globulin (SHBG) in the blood. In order to analyze the effects of pinitol or D-chiro-inositol (DCI) on the levels or activity of female hormones, which are blood indexes associated with menopausal symptoms, in female mature Sprague-Dawley (SD) white rats, a test was conducted. The physiological saline for the control group or pinitol or D-chiro-inositol (10 mg/kg, 20 mg/kg, and 40 mg/kg) for the test groups were orally administered at the predetermined time once a day for 8 weeks. After the completion of the last administration, the 17β-estradiol and sex-hormone binding globulin (SHBG) levels in the blood were measured by ELISA kit. […] Therefore, it could be confirmed that the SHBG level in the blood was decreased by pinitol or D-chiro-inositol, leading to increases in activity of female hormones. According to the test results, it was confirmed that both pinitol and D-chiro-inositol can alleviate female menopause symptoms by increasing the 17β-estradiol levels in the blood and decreasing the SHBG levels in the blood.

[3] = test system: sex-hormone binding globulin (SHBG); assay: SHBG level in the blood of middle-aged women after 8 weeks administration (ELISA); type: in vivo
Protocol: as §1, with “The pinitol, D-chiro-inositol, or placebo was administered at 600 mg, 1,200 mg, and 2,400 mg a day.” left out, “The pinitol or D-chiro-inositol was administered at 600 mg, 1,200 mg, and 2,400 mg a day for 8 weeks.” left out

17β-estradiol [4] = assay: 17β-estradiol level in the blood of white rats after 8 weeks oral administration (ELISA); type: in vivo, Sprague-Dawley (SD) white rats; details: female SD rats, 10, 20, 40 mg/kg oral once a day for 8 weeks, vs physiological saline
Protocol: Pinitol and D-chiro-inositol were purchased from Biosearch Life (Camino de Purchil, 66. 18004 Granada, Spain). Six-month-old female Sprague-Dawley (SD) white rats (Orient, Korea) were divided into a test group administered with pinitol or D-chiro-inositol and a control group administered with physiological saline while ten animals were used in the test for each of the groups. The rats were bred in a breeding room controlled under a temperature of 22±1° C., humidity of 55±1%, and 12-hour light/dark cycle. The rats were given free access to food and water, and for 7 days after entrance, the rats were acclimated for the breeding environment, and then were used for tests. Physiological saline and pinitol or D-chiro-inositol were orally administered at various doses (10 mg/kg, 20 mg/kg, or 40 mg/kg) at the same amount once a day for 8 weeks. […] The levels of hormones and proteins in the blood were measured according to the manufacturer's manual by using the ELISA kit (Enzo Life Sciences, U.S.A.) for measurement of 17β-estradiol or sex-hormone binding globulin (SHBG) in the blood. […] After the completion of the last administration, the 17β-estradiol and sex-hormone binding globulin (SHBG) levels in the blood were measured by ELISA kit. […]

[5] = middle-aged women, 600 mg once a day for 8 weeks
[6] = middle-aged women, 1,200 mg once a day for 8 weeks
[7] = middle-aged women, 2,400 mg once a day for 8 weeks
[8] = 10 mg/kg oral once a day for 8 weeks
[9] = 20 mg/kg oral once a day for 8 weeks
[10] = 40 mg/kg oral once a day for 8 weeks
[11] = middle-aged women, 600 mg a day for 8 weeks
[12] = middle-aged women, 1,200 mg a day for 8 weeks
[13] = middle-aged women, 1,400 mg administration group, 8 weeks

Row | Structure (SMILES) | 17β-estradiol level in the blood compared with placebo administration group (17β-estradiol [1]) | 17β-estradiol level in the blood, pre- versus post-administration (17β-estradiol [1]) | decrease of average MRS score compared with placebo group (middle-aged women; [5]) | alleviation rate of menopausal symptoms (middle-aged women; [5]) | decrease of average MRS score compared with placebo group (middle-aged women; [6]) | alleviation rate of menopausal symptoms (middle-aged women; [6]) | decrease of average MRS score compared with placebo group (middle-aged women; [7]) | alleviation rate of menopausal symptoms (middle-aged women; [7]) | MRS score post-taking compared with placebo taking group and pre-taking (middle-aged women) | decrease of SHBG level in the blood compared with control group [2, 8] | decrease of SHBG level in the blood compared with control group [2, 9] | decrease of SHBG level in the blood compared with control group [2, 10] | decrease of SHBG level in the blood compared with placebo administration group [3, 11] | decrease of SHBG level in the blood compared with placebo administration group [3, 12] | decrease of SHBG level in the blood compared with placebo administration group [3, 13] | 17β-estradiol level in the blood compared with control group (17β-estradiol [4]) | SHBG level in the blood, pre- versus post-administration ([3]; middle-aged women, 8 weeks)
1 | O[C@H]1[C@H](O)[C@H](O)[C@@H](O)[C@H](O)[C@H]1O [D-chiro-inositol] | significantly increased in a concentration-dependent manner | no particular difference | 5.7 points | about 40.7% | 9.7 points | ~69.3% | 10.3 points | ~73.6% | significantly decreased | about 7.0 nmol/L | ~16.2 nmol/L | ~21.1 nmol/L | about 8.7 nmol/L | ~15.9 nmol/L | ~18.4 nmol/L | significantly increased in a concentration-dependent manner | –
2 | CO[C@H]1[C@H](O)[C@@H](O)[C@@H](O)[C@H](O)[C@@H]1O [pinitol] | significantly increased in a concentration-dependent manner | no particular difference | 4.3 points | about 32.6% | 8.4 points | ~63.6% | 9.1 points | ~68.9% | significantly decreased | about 4.2 nmol/L | ~10.0 nmol/L | ~12.2 nmol/L | about 8.3 nmol/L | ~16.0 nmol/L | ~18.6 nmol/L | significantly increased in a concentration-dependent manner | no particular difference
